Experimental data: patent publication US20020068271A1, “Methods for identifying agents capable of modulating protein kinase C theta (PKC0) activity” (priority 1999, published 2002)
Entries after “also recorded” stand apart in the source; their conditions may differ. Residues, ends and D or L forms follow the SMILES beside them. *: point of attachment. Cbz = O=C(OCc1ccccc1)*

Assays:
[1] = tested on: CD28RE/AP-1 element of the IL-2 promoter; assay: CD28RE/AP-1-Luc reporter assay, anti-CD3/CD28-stimulated Jurkat T cells; type: cell-based; settings: Homo sapiens, read-out: inhibition of anti-CD3/CD28-stimulated activity of CD28RE/AP-1
Description: (§1) FIG. 4a: Jurkat T cells were cotransfected with CD28RE/AP-1-Luc (10 μg) and β-galactosidase plasmid (2 μg) reporters. Twenty hr later, cells were stimulated for 10 min with CD3- plus CD28-specific antibodies, in the presence or absence of rottlerin (Rott; 30 μM) or Gö6976 (Gö; 0.5 μM). Luciferase activity in cell lysates was determined. FIG. 4b Jurkat cells were incubated (15 min at 37° C.) in the absence or presence of rottlerin or Gö6976, and then stimulated with anti-CD3/CD28 antibodies or with TNFα (10 ng/ml) for the indicated times. Nuclear and cytoplasmic extracts were prepared, and protein from each fraction (5 μg) was analyzed by Western blotting with an anti-RelA antibody. FIG. 4c: Wild-type PKCθ-transfected Jurkat T cells were stimulated as in (a). Cell lysates were immunoprecipitated (IP) with normal rabbit serum (NRS) or with an anti-PKCθ antibody, and the in vitro enzymatic activity of PKCθ was measured in the presence or absence of rottlerin or Gö6976 (top panel). The membrane was immunoblotted with a PKCθ-specific antibody (bottom panel).
(§2) Cell Culture, Transfection, and Reporter Assays. […] Transfected Jurkat cells were harvested after 24 hr, washed twice with PBS, lysed, and luciferase or β-galactosidase activities were determined. The results were expressed as arbitrary luciferase units normalized to β-galactosidase activity in the same cells.

[2] = tested on: NF-κB RelA (p65) nuclear translocation; assay: Nuclear translocation of RelA (p65) after anti-CD3/CD28 stimulation, Western blot of nuclear/cytoplasmic extracts; type: cell-based, human; settings: Jurkat cells preincubated 15 min at 37° C., anti-CD3/CD28 stimulation (FIG. 4b)
Description: as §1
(§3) Subcellular Fractionation. To determine PKCθ redistribution, cells were fractionated into cytosolic or membrane fractions as described by Meller (1996) Mol. Cell. Biol. 16:5782-5791; and, SDS-PAGE-resolved proteins were immunoblotted with an HRP-conjugated anti-PKCθ monoclonal antibody (Transduction Laboratories). […]

TNFα-induced NF-κB = assay: NF-κB activity induced by TNFα in Jurkat cells; type: cell-based, human; settings: TNFα 10 ng/ml (FIG. 4b)
Description: as §1, §3

T cells = assay: Fas-mediated T cell apoptosis; type: cell-based
Source text: PKCθ mediates a selective T cell survival signal via phosphorylation of BAD, a Bcl-2 family member. PKC-activating phorbol esters protect various cell types, including T cells, from apoptosis induced by the interaction of Fas with its ligand. However, before the instant invention, the mechanism of this protective effect as well as the identity of the PKC isoform(s) involved in this process were poorly understood. Studies analyzed the role of PKCθ selectively expressed in T lymphocytes in protecting T cells from Fas-mediated apoptosis. […] These events preceded the onset of cell apoptosis. […] Thus, the invention provides methods for identifying inhibitors of PKCθ activity by determining the ability of a test agent to inhibit PKCθ selective protection of T cells from Fas-mediated apoptosis.

BAD (Ser-136, Ser-112) = assay: Phosphorylation of BAD induced by Fas or combined CD3/CD28 ligation; type: cell-based
Source text: Thus, the invention provides methods for identifying inhibitors of PKCθ activity by determining the ability of a test agent to inhibit BAD phosphorylation by PKCθ or a BAD activity.

PKCθ [3] = molecular target: T1, PKCθ (Homo sapiens, UniProt Q04759); settings: in vitro and in intact T cells; cited from earlier work
T1 sequence (Q04759 whole entry): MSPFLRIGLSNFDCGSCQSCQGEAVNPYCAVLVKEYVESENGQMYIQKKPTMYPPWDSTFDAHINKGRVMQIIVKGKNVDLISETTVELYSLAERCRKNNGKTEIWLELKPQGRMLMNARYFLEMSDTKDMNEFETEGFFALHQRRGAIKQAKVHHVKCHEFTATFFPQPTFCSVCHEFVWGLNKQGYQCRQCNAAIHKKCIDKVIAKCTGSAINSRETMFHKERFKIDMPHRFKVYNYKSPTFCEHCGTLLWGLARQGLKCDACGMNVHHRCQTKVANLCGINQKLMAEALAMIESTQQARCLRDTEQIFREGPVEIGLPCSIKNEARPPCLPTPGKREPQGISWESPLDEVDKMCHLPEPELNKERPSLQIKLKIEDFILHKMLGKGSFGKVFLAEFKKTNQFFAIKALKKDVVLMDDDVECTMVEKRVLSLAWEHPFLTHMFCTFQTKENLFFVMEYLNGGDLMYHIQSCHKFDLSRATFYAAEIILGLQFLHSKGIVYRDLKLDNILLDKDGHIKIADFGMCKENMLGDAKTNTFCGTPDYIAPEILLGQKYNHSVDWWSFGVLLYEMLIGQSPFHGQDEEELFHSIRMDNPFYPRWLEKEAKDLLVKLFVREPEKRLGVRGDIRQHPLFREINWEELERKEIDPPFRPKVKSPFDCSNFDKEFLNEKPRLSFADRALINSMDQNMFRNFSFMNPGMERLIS

PKCθ [4] = molecular target: T1, PKCθ; assay: In vitro kinase assay of immunoprecipitated PKCθ (MBP substrate); type: biochemical; parameters: expressed in transfected cells; host or cells: Jurkat (E6.1) human leukemic T cells; settings: immunoprecipitated PKCθ from wild-type PKCθ-transfected Jurkat T cells, inhibitor added to kinase reaction (FIG. 4c)
Description: as §1
Kinase Assays. […] ATP incorporation was determined using a STORM 860™ PhosphorImager (Molecular Dynamics). […]

PKCθ-A/E-induced NF-κB = assay: NF-κB-Luc reporter induced by constitutively active PKCθ-A/E in Jurkat cells; type: cell-based, human; settings: cultured 16 hr, MG132 0, 5, 10, 20 μM (FIG. 5a)
Description: (§4) Jurkat cells were transfected with an empty vector (−) or constitutively active PKCθ (10 μg) together with NF-κB-Luc (FIG. 5a) CD28RE/AP-1-Luc (FIG. 5b), or AP-1-Luc (FIG. 5c) reporter constructs (5 μg each). The cells were cultured for 16 hr with the indicated concentrations of the […] MG132 (0, 5, 10, 20 μM), lysed, and luciferase activity was quantified. FIG. 5d: Jurkat cells were transfected with wild type IKKα (5 μg) or IKKβ (2 μg) together with an empty vector (0) or increasing amounts of constitutively active PKCθ. Twenty-four hr later, the cells were stimulated with anti-CD3/CD28 antibodies or with TNFα. Immunoprecipitated IKKα or IKKβ were subjected to an in vitro kinase assay. Phosphorylated GST-IκBα/1-62 was detected by autoradiography (top panels). […] After 24 hr, cells were lysed and normalized luciferase activity was determined. FIG. 5f: The expression level of the transfected IKKs or PKCθ was assessed by Western blotting using c-Myc-(IKKα), Flag-(IKKβ), or PKCθ-specific antibodies.
as §2, with “cells. […]” for “cells.”

[5] = tested on: PKCθ-A/E-induced CD28RE/AP-1; assay: CD28RE/AP-1-Luc reporter induced by constitutively active PKCθ-A/E in Jurkat cells; type: cell-based, human; settings: cultured 16 hr, MG132 0, 5, 10, 20 μM (FIG. 5b)
Description: as §4
as §2, with “cells. […]” for “cells.”

## CC(=O)c1c(O)c(C)c(O)c(Cc2c(O)c3c(c(C(=O)/C=C/c4ccccc4)c2O)OC(C)(C)C=C3)c1O [rottlerin]
[1]
  inhibition at 30 µM: ~80%
[2]
  receptor-stimulated nuclear translocation of RelA (p65): essentially blocked
TNFα-induced NF-κB
  inhibition of NF-κB activity induced by TNFα: did not inhibit
T cells
  synergy with an anti-Fas antibody to induce rapid T cell apoptosis: synergized
BAD (Ser-136, Ser-112)
  phosphorylation of BAD on Ser-136 (and to a lesser extent on Ser-112): selectively blocked
PKCθ [3]
  inhibition of PKCθ function: inhibits PKCθ function
PKCθ [4]
  inhibition of CD3/CD28-induced PKCθ activity: considerably more effective than Gö6976

## CC(C)C[C@@H](C=O)NC(=O)[C@H](CC(C)C)NC(=O)[C@H](CC(C)C)NC(=O)OCc1ccccc1 [MG132] (Cbz-Leu-Leu-Leu-aldehyde)
PKCθ-A/E-induced NF-κB
  PKCθ-A/E-induced activation of NF-κB: blocked in a dose-dependent manner
[5]
  PKCθ-A/E-induced activation of CD28RE/AP-1: blocked in a dose-dependent manner; also recorded: inhibited
